# Literature values as cited in US20250311736A1, “SEED TREATMENT METHODS FOR INCREASING YIELD IN CROP PLANTS” (BAYER AKTIENGESELLSCHAFT, priority 2021, published 2025).
# Test system: plants
# Conditions: Tavares et al., 2011; Suwitchayanon et al., 2019
structure (smiles),measurement,value
O=C(/C=C/C=C/c1ccc2c(c1)OCO2)N1CCCCC1 [piperine],phytotoxic effect on plants (inhibits their growth),phytotoxic effect
